Test results published in article doi:10.1101/2022.12.07.519454v2 (biorxiv, 2023).

Tests used:
[1] = biological target: T1, yeast Sin3 PAH2 domain (Saccharomyces cerevisiae, UniProt P22579); assay: fluorescence polarization displacement of FITC-Ume6 SID; format: binding
T1 sequence (P22579 402-473): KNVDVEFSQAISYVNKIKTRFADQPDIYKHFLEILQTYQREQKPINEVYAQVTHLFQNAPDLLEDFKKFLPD

[2] = biological target: T1, yeast Sin3 PAH2 domain; assay: fluorescence polarization displacement of FITC-Ume6 SID peptide; format: binding

Ki [1] [µM]	IC50 [2] [µM]	Structure (SMILES)
16.1	74.5 ± 7.2	C[C@@H](NC(=O)C1C(=O)N=C2C=CC=CN2C1O)c1ccccc1 (stereo partly drawn) [E6R, 4-hydroxy-2-oxo-N-((R)-1-phenylethyl)-3,4-dihydro-2H-pyrido[1,2-a]pyrimidine-3-carboxamide]
38.5	174 ± 21.9	C[C@H](NC(=O)C1C(=O)N=C2C=CC=CN2C1O)c1ccccc1 (stereo partly drawn) [E6S, 4-hydroxy-2-oxo-N-((S)-1-phenylethyl)-3,4-dihydro-2H-pyrido[1,2-a]pyrimidine-3-carboxamide]
